Data reported in patent US6239171A, “Tocotrienols and tocotrienol-like compounds and methods for their use” (Lipogenics, Inc., priority 1998, dated 2001).

Experiments:
[1] = tested on: hypercholesterolemic swine; assay: Plasma thromboxane B2 and platelet factor 4 in hypercholesterolemic swine; assay type: in vivo; design: Platelet Factor 4: unit not given here; settings: control diet + 50 ppm, 42 days
Text: All assays conducted on chicken or swine serum were done following the protocols described in A. A. Qureshi et al., "Lowering Of Serum Cholesterol In Hypercholesterolemic Humans By Tocotrienols" (Palmvitee), Am. J. Clin. Nutr., 53, pp. 1021S-26S (1991). All enzymatic assays were done following the protocols described in A. A. Qureshi et al., "Effects of Cereals and Culture Filtrate of Trichoderma viride on Lipid Metabolism of Swine", Lipids, 17, pp. 924 (1982). Plasma insulin, glucagon and TNF levels were measured using radioinnumoassay kits from Ventrex Laboratories, Inc. (Portland, Me.), ICN Biomedicals, Inc. (Costa Mesa, Calif.) and Genzyme Corp. (Cambridge, Mass.), respectively.
(§1) Each group of three 5-month old swine was administered either a control diet or a control diet supplemented with 50 ppm of TRF or 50 ppm of an individual tocotrienol. The samples were prepared as described in Example 11. After a 12 hour fast, serum and plasma samples were taken a 0 hrs, 21 days and 42 days from the start of the feeding period. After taking serum and plasma samples from the pigs at the end of the 42 day period, all of the swine were fasted for a total of 40 hours, followed by a 48 hour refeeding period. One swine from each group was sacrificed at that time and the liver, intestine, lung, heart, loin muscle, adipose tissue and ham muscle were removed.
This example was conducted to measure the serum levels of apolipoprotein (a)1, apolipoprotein B, triglycerides, glucose, insulin and glucagon and the plasma levels of thromboxane B2 and platelet factor 4 in the swine described in Example 15.

[2] = tested on: hypercholesterolemic swine; assay: Total cholesterol, triglyceride and glucose concentrations in tissues of hypercholesterolemic swine; assay type: in vivo
Description: as §1, with “The samples were prepared as described in Example 11.” left out
We next determined the effect of tocotrienols on the total cholesterol, triglyceride and glucose concentrations in various tissues of hypercholesterolemic swine.

[3] = tested on: cholesterol 7α-hydroxylase; assay: Hepatic cholesterol 7α-hydroxylase activity in chickens fed supplemented diets; assay type: in vivo, chicken; settings: control diet + 50 ppm, 4 weeks
Description: This example measured the effects of the TRF and its components on the hepatic enzymatic activity of HMG-CoA reductase and cholesterol 7α-hydroxylase. […] The amount of feed consumed ranged from 11.19-11.60 g per chicken and the feeding period was 4 weeks. The birds were fasted for a period of 36 hours and refed for 48 hours prior to sacrifice (at 0800 hours).

[4] = tested on: hypercholesterolemic swine; assay: Serum cholesterol, apolipoproteins, triglycerides, glucose, insulin and glucagon in hypercholesterolemic swine; assay type: in vivo
Description: All assays conducted on chicken or swine serum were done following the protocols described in A. A. Qureshi et al., "Lowering Of Serum Cholesterol In Hypercholesterolemic Humans By Tocotrienols" (Palmvitee), Am. […] Plasma insulin, glucagon and TNF levels were measured using radioinnumoassay kits from Ventrex Laboratories, Inc. (Portland, Me.), ICN Biomedicals, Inc. (Costa Mesa, Calif.) and Genzyme Corp. (Cambridge, Mass.), respectively.
We next measured the effects of various tocotrienols from rice bran on HMG-CoA reductase and cholesterol 7α-hydroxylase in hypercholesterolemic swine. Since pigs are very similar to humans in their cholesterol metabolism, they provide a useful model from which to study hypercholesterolemia and related diseases. […] As a result, the pigs develop complicated atherosclerotic plaques that closely resemble advanced atherosclerotic lesions found in humans.
as §1, with “The samples were prepared as described in Example 11.” left out
The experimental conditions were the same, except that the two remaining swine in each group were transferred to the unsupplemented control diet following the 42 day feeding period. After an additional 70 days, serum and plasma samples were collected from these swine after a 12 hour fast for testing.

[5] = 70 days on control diet after 42 days at 50 ppm

CC(C)=CCC/C(C)=C/CC/C(C)=C/CCC1CCc2cc(O)ccc2O1 (stereo not drawn) [P25, 3,4-dihydro-2-(4,8,12-trimethyltrideca-3'(E),7'(E),11'-trienyl)-2H-1-benzopyran-6-ol]
Platelet Factor 4 [1]: 19.15
Platelet Factor 4, percentage of control [1]: 79.36%
Thromboxane B2 [1]: 57.03 pg/100 ml
Thromboxane B2, percentage of control [1]: 83.02%
reduction of total cholesterol concentration in the ham muscle ([2]; 50 ppm in diet): 30%
reduction of total cholesterol concentration in the liver ([2]; 50 ppm in diet): 37%
TOTAL CHOLESTEROL CONCENTRATION, Adipose Tissue ([2]; control diet + 50 ppm, 42 days): 89.54 mg/100 gm
TOTAL CHOLESTEROL CONCENTRATION, Ham Muscle ([2]; control diet + 50 ppm, 42 days): 69.17 mg/100 gm
TOTAL CHOLESTEROL CONCENTRATION, Heart ([2]; control diet + 50 ppm, 42 days): 51.53 mg/100 gm
TOTAL CHOLESTEROL CONCENTRATION, Intestine ([2]; control diet + 50 ppm, 42 days): 176.67 mg/100 gm
TOTAL CHOLESTEROL CONCENTRATION, Liver ([2]; control diet + 50 ppm, 42 days): 125.21 mg/100 gm
TOTAL CHOLESTEROL CONCENTRATION, Loin Muscle ([2]; control diet + 50 ppm, 42 days): 99.04 mg/100 gm
TOTAL CHOLESTEROL CONCENTRATION, Lung ([2]; control diet + 50 ppm, 42 days): 68.5 mg/100 gm
TOTAL CHOLESTEROL, Adipose Tissue, percentage of control ([2]; control diet + 50 ppm, 42 days): 81.85%
TOTAL CHOLESTEROL, Ham Muscle, percentage of control ([2]; control diet + 50 ppm, 42 days): 69.17%
TOTAL CHOLESTEROL, Heart, percentage of control ([2]; control diet + 50 ppm, 42 days): 82.79%
TOTAL CHOLESTEROL, Intestine, percentage of control ([2]; control diet + 50 ppm, 42 days): 81.98%
TOTAL CHOLESTEROL, Liver, percentage of control ([2]; control diet + 50 ppm, 42 days): 62.11%
TOTAL CHOLESTEROL, Loin Muscle, percentage of control ([2]; control diet + 50 ppm, 42 days): 81.85%
TOTAL CHOLESTEROL, Lung, percentage of control ([2]; control diet + 50 ppm, 42 days): 66.98%
TOTAL GLUCOSE CONCENTRATION, Adipose Tissue ([2]; control diet + 50 ppm, 42 days): 14.96 mg/100 gm
TOTAL GLUCOSE CONCENTRATION, Ham Muscle ([2]; control diet + 50 ppm, 42 days): 53.05 mg/100 gm
TOTAL GLUCOSE CONCENTRATION, Heart ([2]; control diet + 50 ppm, 42 days): 45.49 mg/100 gm
TOTAL GLUCOSE CONCENTRATION, Intestine ([2]; control diet + 50 ppm, 42 days): 56.06 mg/100 gm
TOTAL GLUCOSE CONCENTRATION, Liver ([2]; control diet + 50 ppm, 42 days): 362.99 mg/100 gm
TOTAL GLUCOSE CONCENTRATION, Loin Muscle ([2]; control diet + 50 ppm, 42 days): 53.01 mg/100 gm
TOTAL GLUCOSE CONCENTRATION, Lung ([2]; control diet + 50 ppm, 42 days): 60.96 mg/100 gm
TOTAL GLUCOSE, Adipose Tissue, percentage of control ([2]; control diet + 50 ppm, 42 days): 81.57%
TOTAL GLUCOSE, Ham Muscle, percentage of control ([2]; control diet + 50 ppm, 42 days): 98.57%
TOTAL GLUCOSE, Heart, percentage of control ([2]; control diet + 50 ppm, 42 days): 92.37%
TOTAL GLUCOSE, Intestine, percentage of control ([2]; control diet + 50 ppm, 42 days): 77.89%
TOTAL GLUCOSE, Liver, percentage of control ([2]; control diet + 50 ppm, 42 days): 89.58%
TOTAL GLUCOSE, Loin Muscle, percentage of control ([2]; control diet + 50 ppm, 42 days): 74.41%
TOTAL GLUCOSE, Lung, percentage of control ([2]; control diet + 50 ppm, 42 days): 91.08%
TOTAL TRIGLYCERIDES CONCENTRATION, Adipose Tissue ([2]; control diet + 50 ppm, 42 days): 259.62 mg/100 gm
TOTAL TRIGLYCERIDES CONCENTRATION, Ham Muscle ([2]; control diet + 50 ppm, 42 days): 182.98 mg/100 gm
TOTAL TRIGLYCERIDES CONCENTRATION, Heart ([2]; control diet + 50 ppm, 42 days): 140.51 mg/100 gm
TOTAL TRIGLYCERIDES CONCENTRATION, Intestine ([2]; control diet + 50 ppm, 42 days): 345.37 mg/100 gm
TOTAL TRIGLYCERIDES CONCENTRATION, Liver ([2]; control diet + 50 ppm, 42 days): 384.00 mg/100 gm
TOTAL TRIGLYCERIDES CONCENTRATION, Loin Muscle ([2]; control diet + 50 ppm, 42 days): 189.18 mg/100 gm
TOTAL TRIGLYCERIDES CONCENTRATION, Lung ([2]; control diet + 50 ppm, 42 days): 163.42 mg/100 gm
TOTAL TRIGLYCERIDES, Adipose Tissue, percentage of control activity ([2]; control diet + 50 ppm, 42 days): 59.59%
TOTAL TRIGLYCERIDES, Ham Muscle, percentage of control activity ([2]; control diet + 50 ppm, 42 days): 98.44%
TOTAL TRIGLYCERIDES, Heart, percentage of control activity ([2]; control diet + 50 ppm, 42 days): 97.43%
TOTAL TRIGLYCERIDES, Intestine, percentage of control activity ([2]; control diet + 50 ppm, 42 days): 96.57%
TOTAL TRIGLYCERIDES, Liver, percentage of control activity ([2]; control diet + 50 ppm, 42 days): 89.44%
TOTAL TRIGLYCERIDES, Loin Muscle, percentage of control activity ([2]; control diet + 50 ppm, 42 days): 86.12%
TOTAL TRIGLYCERIDES, Lung, percentage of control activity ([2]; control diet + 50 ppm, 42 days): 95.03%
Cholesterol 7α-Hydroxylase, percentage of control [3]: 111.45%
Cholesterol 7α-hydroxylase [3]: 11.39 nmol/min/mg
HDL-CHOLESTEROL CONCENTRATION IN SERUM [4, 5]: 32.65 mg/100 ml
HDL-CHOLESTEROL, Percentage of Control Activity [4, 5]: 114.29%
HDL-CHOLESTEROL, percentage of baseline value [4, 5]: 149.36%
HDL:LDL CHOLESTEROL, Percentage of Control Activity [4, 5]: 82.06%
LDL-CHOLESTEROL CONCENTRATION IN SERUM [4, 5]: 233.75 mg/100 ml
LDL-CHOLESTEROL, Percentage of Control Activity [4, 5]: 90.17%
LDL-CHOLESTEROL, percentage of baseline value [4, 5]: 128.17%
TOTAL CHOLESTEROL CONCENTRATION IN SERUM [4, 5]: 268.90 mg/100 ml
TOTAL CHOLESTEROL, Percentage of Control Activity [4, 5]: 75.60%
TOTAL CHOLESTEROL, percentage of baseline value [4, 5]: 124.45%
Apo A1, percentage of control ([4]; control diet + 50 ppm, 6 weeks): 104.05%
Apo A1 concentration in serum ([4]; control diet + 50 ppm, 6 weeks): 26.73 ± 1.22 mg/100 ml
Apo B concentration in serum ([4]; control diet + 50 ppm, 6 weeks): 106.63 ± 1.72 mg/100 ml
Apo B, percentage of control ([4]; control diet + 50 ppm, 6 weeks): 72.16%
Triglycerides concentration in serum ([4]; control diet + 50 ppm, 6 weeks): 62.00 ± 1.19 mg/100 ml
Triglycerides, percentage of control ([4]; control diet + 50 ppm, 6 weeks): 80.98%
HDL-CHOLESTEROL CONCENTRATION IN SERUM ([4]; control diet + 50 ppm, 21 days): 25.68 mg/100 ml
HDL-CHOLESTEROL, percentage of baseline value ([4]; control diet + 50 ppm, 21 days): 117.47%
HDL:LDL CHOLESTEROL, percentage of baseline value ([4]; control diet + 50 ppm, 21 days): 89.20%
LDL-CHOLESTEROL CONCENTRATION IN SERUM ([4]; control diet + 50 ppm, 21 days): 191.05 mg/100 ml
LDL-CHOLESTEROL, percentage of baseline value ([4]; control diet + 50 ppm, 21 days): 104.76%
TOTAL CHOLESTEROL CONCENTRATION IN SERUM ([4]; control diet + 50 ppm, 21 days): 229.90 mg/100 ml
TOTAL CHOLESTEROL, percentage of baseline value ([4]; control diet + 50 ppm, 21 days): 106.33%
Glucagon ([4]; control diet + 50 ppm, 42 days): 274.41 pg/mL
Glucagon, percentage of control ([4]; control diet + 50 ppm, 42 days): 83.05%
Glucose ([4]; control diet + 50 ppm, 42 days): 71.89 mg/100 ml
Glucose, percentage of control ([4]; control diet + 50 ppm, 42 days): 74.89%
HDL-CHOLESTEROL CONCENTRATION IN SERUM ([4]; control diet + 50 ppm, 42 days): 31.81 mg/100 ml
HDL-CHOLESTEROL, Percentage of Control Activity ([4]; control diet + 50 ppm, 42 days): 123.75%
HDL-CHOLESTEROL, percentage of baseline value ([4]; control diet + 50 ppm, 42 days): 145.52%
HDL:LDL CHOLESTEROL, Percentage of Control Activity ([4]; control diet + 50 ppm, 42 days): 55.59%
HDL:LDL CHOLESTEROL, percentage of baseline value ([4]; control diet + 50 ppm, 42 days): 74.58%
Insulin ([4]; control diet + 50 ppm, 42 days): 20.9 µU/mL
Insulin, percentage of control ([4]; control diet + 50 ppm, 42 days): 101.90%
LDL-CHOLESTEROL CONCENTRATION IN SERUM ([4]; control diet + 50 ppm, 42 days): 198.01 mg/100 ml
LDL-CHOLESTEROL, Percentage of Control Activity ([4]; control diet + 50 ppm, 42 days): 65.51%
LDL-CHOLESTEROL, percentage of baseline value ([4]; control diet + 50 ppm, 42 days): 107.48%
TOTAL CHOLESTEROL CONCENTRATION IN SERUM ([4]; control diet + 50 ppm, 42 days): 237.64 mg/100 ml
TOTAL CHOLESTEROL, Percentage of Control Activity ([4]; control diet + 50 ppm, 42 days): 68.60%
TOTAL CHOLESTEROL, percentage of baseline value ([4]; control diet + 50 ppm, 42 days): 107.60%
